Data published in patent US7011814B2, “Systems, methods and devices for in vivo monitoring of a localized response via a radiolabeled analyte in a subject” (Sicel Technologies, Inc., priority 2001, dated 2006).

Key:
[1] = cited from earlier work
[2] = in vivo monitoring of radiolabeled analyte uptake in tissue with subcutaneous fiber optic beta radiation probes
Experimental: The labeled glucose can be injected into the tail vein of test animals (such as rats) in a single bolus.
FIG. 11A illustrates a response profile graph (an integrated counts (above threshold) over time profile) taken over a monitored time period of about 85 minutes (study #2). The counts were taken on a thirty seconds/sample count time frame. In this experiment, a fiber optic probe was positioned subcutaneously in “normal” or non-cancerous tissue in the back of a Fisher 344 rat. A dose of 50 μCi of ^14C-2DG was injected in the tail vein. The data was monitored for about 85 minutes. […] The initial portion of the graph has values that represent “baseline” or dark current.
FIGS. 11B-11C illustrate graphs of data obtained using two probes, each placed subcutaneously in normal tissue of a 190 gram female Fisher 344 rat, one placed in the flank/inguinal and the other in the scapula (study #4). […] In this experiment, a bolus of 200 μCi of ^14C 2-DG was administered via intra-peritoneal (IP) injection. The data was monitored for about 96 minutes.

## O=c1[nH]cc(F)c(=O)[nH]1 [5-FU, 5-Fluorouracil]
[1]; PET with O-15 labeled water and 5-[F-18]FU
  lesions in which enhanced trapping was noted: 70%

## O=c1[nH]cc([18F])c(=O)[nH]1 [5-[F-18]FU]
[1]; PET, 120-minute acquisition time
  liver parenchyma uptake at the end of the acquisition time, relative to the maximum: 25%
[1]; PET, during the 120-minute acquisition time
  uptake in the metastases: low and relatively constant
[1]; PET, liver metastases
  mean uptake in metastases relative to liver uptake at the same time interval: one-third
[1]; PET, normal liver parenchyma
  time of highest uptake in normal liver parenchyma after onset of the infusion of the tracer: about 30 minutes

## C-14 labeled 2-deoxyglucose [^14C-2DG]
[2]; 50 μCi injected in tail vein, probe subcutaneous in normal tissue in back of Fisher 344 rat, study #2, FIG. 11A
  time from injection at which counts reached a plateau: about 10 minutes
[2]; 200 μCi bolus intra-peritoneal, two probes subcutaneous in normal tissue, 190 gram female Fisher 344 rat, monitored about 96 minutes, study #4, FIG. 11B
  concentration in scapula region compared to flank region: higher concentrations were obtained in the scapula region compared to the flank region
[2]; 200 μCi intra-peritoneal, flank/inguinal normal tissue probe, study #4, FIG. 11C
  time range in which peak or maxima point of concentration is reached (observed points): 20 to 50 min
